Where two headings read alike, the source gives them in different places.
Assays:
JTAg cells = assay: TCR signaling in JTAg cells, Western blot; format: cell-based, human; conditions: for TCR-induced phosphorylation of Lck at Y394: 50 μM compound, C305 stimulation 2 min, anti-pSrc(Y416) blot
Pep = assay: Lck Y394 phosphorylation in Ptpn22+/+ and Ptpn22−/− mouse T cells; format: cell-based; conditions: 50 μM, stimulated with anti-CD3 and anti-CD4
primary human T cells = assay: TCR-induced phosphorylation in primary human T cells; format: cell-based; conditions: 50 μM, anti-CD3/anti-CD28 1 min
LYP = biological target: T1, LYP (Homo sapiens, UniProt Q9Y2R2); format: biochemical
T1 sequence (Q9Y2R2 2-309): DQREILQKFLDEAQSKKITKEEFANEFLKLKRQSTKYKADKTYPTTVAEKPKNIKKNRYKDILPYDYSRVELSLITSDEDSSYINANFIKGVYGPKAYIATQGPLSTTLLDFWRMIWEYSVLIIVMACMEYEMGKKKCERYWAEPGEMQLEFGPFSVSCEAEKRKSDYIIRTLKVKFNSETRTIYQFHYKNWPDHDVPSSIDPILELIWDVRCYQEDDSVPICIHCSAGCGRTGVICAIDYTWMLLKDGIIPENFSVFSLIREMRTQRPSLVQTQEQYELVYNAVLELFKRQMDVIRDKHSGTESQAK

In the case of `CCOc1ccc2nc(NC(=O)CSc3nc4sc(C)c(C)c4c(=O)[nH]3)sc2c1` [Compound 1], the “TCR-induced phosphorylation of Lck at Y394” value (JTAg cells; JTAg cells) is reported as “lack of activity”.
`CCc1cccc(C)c1NC(=O)CSc1nc2c(C)ccc(C)c2cc1C#N` [Compound 2] was tested, and the “phosphorylation of Lck at Y505” value (JTAg cells; JTAg cells treated with compound (data not shown)) was “unable to detect increased phosphorylation of Lck at Y505” and the “TCR-induced phosphorylation of Lck at Y394” value (JTAg cells; JTAg cells) was “lack of activity”.
`Cc1ccc2[nH]c(=O)c(C(c3nnnn3C3CCCC3)N3CCCC4(CCCCC4)C3)cc2c1` (centres unmarked) [Compound 4] was tested, and the ERK1/2 phosphorylation (JTAg cells; JTAg cells, 50 μM, C305 2 min) was “increased ERK1/2 phosphorylation”, the “TCR-stimulated phosphorylation of ZAP70” value (JTAg cells; JTAg cells, 50 μM, C305 2 min) was “increased TCR-stimulated phosphorylation of ZAP70” and the “Lck phosphorylation at Y394, wild type (Ptpn22+/+) T cells” value (Pep) was “increased Lck phosphorylation at Y394”. The “Lck phosphorylation, Ptpn22−/− T cells” value (Pep) was “no effect on phosphorylation of Lck” and the “TCR-induced phosphorylation of Lck, ZAP70 and LAT” value (primary human T cells) was “equally able to boost TCR-induced phosphorylation of Lck, ZAP70, and linker for activation of T cells (LAT)”.
In the case of `Cc1ccc2[nH]c(=O)c(C(c3nnnn3C3CCCC3)N3CCN(C(c4ccccc4)c4ccccc4)CC3)cc2c1` (centres unmarked) [Compound 4f], the “relationship between IC50 and substrate concentration” value (LYP) is reported as “independent from substrate concentration” and the α (LYP; pH 6) is reported as 1.93 ± 1.27.
With `Cc1ccc2[nH]c(=O)c(C(c3nnnn3C3CCCC3)N(Cc3ccccc3)Cc3ccc(Cl)cc3)cc2c1` (centres unmarked) [Compound 4g] the “dual inhibition plot vs compound 13” value (LYP; 13.72 μM pY peptide, 25 nM LYP) was “converging lines”, the α (LYP; mixed model inhibition fit, pY peptide, pH 6.0, 37 °C) was 2.96 ± 2.48 and the “relationship between IC50 and substrate concentration” value (LYP; pY peptide, 25 nM LYP) was “independent from substrate concentration”.
In the case of `O=C(CSc1nc(C2CC2)nc2sc3c(c12)CCCC3)NCc1ccc2c(c1)OCO2` [Compound 6], the “TCR-induced phosphorylation of Lck at Y394” value (JTAg cells; JTAg cells) is reported as “lack of activity”.
